Assay results reported in ChEMBL document CHEMBL4602639, “A novel series of 11-O-carbamoyl-3-O-descladinosyl clarithromycin derivatives bearing 1,2,3-triazole group: Design, synthesis and antibacterial evaluation” (2020).
Converted amounts (≈) assume the structure as drawn.

Legend:
Type in all cases: functional
Streptococcus pneumoniae [1] = experiment: Antibacterial activity against erythromycin-resistant Streptococcus pneumoniae AB11 expressing ermB and me/A genes by standard broth microdilution method
Bacillus subtilis = experiment: Antibacterial activity against penicillin-susceptible Bacillus subtilis ATCC 9372 by standard broth microdilution method
Streptococcus pneumoniae [2] = experiment: Antibacterial activity against erythromycin-resistant Streptococcus pneumoniae B1 expressing ermB gene by standard broth microdilution method
Staphylococcus aureus [3] = experiment: Antibacterial activity against methicillin-resistant Staphylococcus aureus ATCC 43300 by standard broth microdilution method
Staphylococcus aureus [4] = experiment: Antibacterial activity against erythromycin-susceptible Staphylococcus aureus ATCC 25923 by standard broth microdilution method
Streptococcus pyogenes [5] = experiment: Antibacterial activity against erythromycin resistant Streptococcus pyogenes R1 by standard broth microdilution method
Escherichia coli = experiment: Antibacterial activity against penicillin-susceptible Escherichia coli ATCC 25922 by standard broth microdilution method
Pseudomonas aeruginosa = experiment: Antibacterial activity against penicillin-susceptible Pseudomonas aeruginosa ATCC 27853 by standard broth microdilution method
Streptococcus pyogenes [6] = experiment: Potency index, ratio of MIC of AZM to MIC of compound for antibacterial activity against erythromycin resistant Streptococcus pyogenes R1
Streptococcus pyogenes [7] = experiment: Potency index, ratio of MIC of CAM to MIC of compound for antibacterial activity against erythromycin resistant Streptococcus pyogenes R1

| Structure (SMILES) | MIC (Streptococcus pneumoniae [1]) [µg/mL] | MIC (Bacillus subtilis) [µg/mL] | MIC (Streptococcus pneumoniae [2]) [µg/mL] | MIC (Staphylococcus aureus [3]) [µg/mL] | MIC (Staphylococcus aureus [4]) [µg/mL] | MIC (Streptococcus pyogenes [5]) [µg/mL] | MIC (Escherichia coli) [µg/mL] | MIC (Pseudomonas aeruginosa) [µg/mL] | Ratio (Streptococcus pyogenes [6]) | Ratio (Streptococcus pyogenes [7]) |
| --- | --- | --- | --- | --- | --- | --- | --- | --- | --- | --- |
| CC[C@H]1OC(=O)[C@H](C)C(=O)[C@H](C)[C@@H](O[C@H]2O[C@@H](C)C[C@@H](N(C)C)[C@@H]2O)[C@](C)(OC)C[C@@H](C)C(=O)[C@H](C)[C@@H](OC(=O)NCCn2cc(-c3ccc([N+](=O)[O-])cc3)nn2)[C@]1(C)O | 256 (≈ 302 µM) | 4 (≈ 4.72 µM) | 256 (≈ 302 µM) | > 256 | 16 (≈ 18.9 µM) | 64 (≈ 75.6 µM) | > 128 | 128 (≈ 151 µM) | – | – |
| CC[C@H]1OC(=O)[C@H](C)C(=O)[C@H](C)[C@@H](O[C@H]2O[C@@H](C)C[C@@H](N(C)C)[C@@H]2O)[C@](C)(OC)C[C@@H](C)C(=O)[C@H](C)[C@@H](OC(=O)NCCn2cc(-c3cccc(C)c3)nn2)[C@]1(C)O | 256 (≈ 314 µM) | 8 (≈ 9.8 µM) | > 256 | > 256 | 32 (≈ 39.2 µM) | 256 (≈ 314 µM) | > 128 | 128 (≈ 157 µM) | – | – |
| CC[C@H]1OC(=O)[C@H](C)C(=O)[C@H](C)[C@@H](O[C@H]2O[C@@H](C)C[C@@H](N(C)C)[C@@H]2O)[C@](C)(OC)C[C@@H](C)C(=O)[C@H](C)[C@@H](OC(=O)NCCn2cc(-c3ccccc3Cl)nn2)[C@]1(C)O | 128 (≈ 153 µM) | 4 (≈ 4.78 µM) | 128 (≈ 153 µM) | 256 (≈ 306 µM) | 8 (≈ 9.56 µM) | 64 (≈ 76.5 µM) | > 128 | 128 (≈ 153 µM) | – | – |
| CC[C@H]1OC(=O)[C@H](C)C(=O)[C@H](C)[C@@H](O[C@H]2O[C@@H](C)C[C@@H](N(C)C)[C@@H]2O)[C@](C)(OC)C[C@@H](C)C(=O)[C@H](C)[C@@H](OC(=O)NCCn2cc(-c3ccc(OC)cc3)nn2)[C@]1(C)O | 256 (≈ 308 µM) | 4 (≈ 4.81 µM) | > 256 | > 256 | 16 (≈ 19.2 µM) | 256 (≈ 308 µM) | > 128 | 128 (≈ 154 µM) | – | – |
| CC[C@H]1OC(=O)[C@H](C)C(=O)[C@H](C)[C@@H](O[C@H]2O[C@@H](C)C[C@@H](N(C)C)[C@@H]2O)[C@](C)(OC)C[C@@H](C)C(=O)[C@H](C)[C@@H](OC(=O)NCCCn2cc(-c3ccc(C(C)(C)C)cc3)nn2)[C@]1(C)O | 64 (≈ 73.4 µM) | 16 (≈ 18.3 µM) | 64 (≈ 73.4 µM) | 128 (≈ 147 µM) | 16 (≈ 18.3 µM) | 32 (≈ 36.7 µM) | > 128 | 128 (≈ 147 µM) | 8 - 16 | 8 - 16 |
| CC[C@H]1OC(=O)[C@H](C)C(=O)[C@H](C)[C@@H](O[C@H]2O[C@@H](C)C[C@@H](N(C)C)[C@@H]2O)[C@](C)(OC)C[C@@H](C)C(=O)[C@H](C)[C@@H](OC(=O)NCCn2cc(-c3cccc(N)c3)nn2)[C@]1(C)O | 256 (≈ 313 µM) | 32 (≈ 39.2 µM) | > 256 | > 256 | 32 (≈ 39.2 µM) | 256 (≈ 313 µM) | > 128 | 128 (≈ 157 µM) | – | – |
| CC[C@H]1OC(=O)[C@H](C)C(=O)[C@H](C)[C@@H](O[C@H]2O[C@@H](C)C[C@@H](N(C)C)[C@@H]2O)[C@](C)(OC)C[C@@H](C)C(=O)[C@H](C)[C@@H](OC(=O)NCCn2cc(-c3ccc(Cl)cc3)nn2)[C@]1(C)O | 128 (≈ 153 µM) | 4 (≈ 4.78 µM) | 128 (≈ 153 µM) | 256 (≈ 306 µM) | 8 (≈ 9.56 µM) | 64 (≈ 76.5 µM) | > 128 | 128 (≈ 153 µM) | – | – |
| CC[C@H]1OC(=O)[C@H](C)C(=O)[C@H](C)[C@@H](O[C@H]2O[C@@H](C)C[C@@H](N(C)C)[C@@H]2O)[C@](C)(OC)C[C@@H](C)C(=O)[C@H](C)[C@@H](OC(=O)NCCCn2cc(-c3ccccc3)nn2)[C@]1(C)O | 64 (≈ 78.4 µM) | 8 (≈ 9.8 µM) | 128 (≈ 157 µM) | 256 (≈ 314 µM) | 8 (≈ 9.8 µM) | 64 (≈ 78.4 µM) | > 128 | 128 (≈ 157 µM) | – | – |
| CCOc1ccc(-c2cn(CCNC(=O)O[C@@H]3[C@@H](C)C(=O)[C@H](C)C[C@@](C)(OC)[C@H](O[C@H]4O[C@@H](C)C[C@@H](N(C)C)[C@@H]4O)[C@@H](C)C(=O)[C@@H](C)C(=O)O[C@H](CC)[C@@]3(C)O)nn2)cc1 | 256 (≈ 303 µM) | 16 (≈ 18.9 µM) | > 256 | > 256 | 16 (≈ 18.9 µM) | 128 (≈ 151 µM) | > 128 | 128 (≈ 151 µM) | – | – |
| CC[C@H]1OC(=O)[C@H](C)[C@@H](O[C@H]2C[C@@](C)(OC)[C@@H](O)[C@H](C)O2)[C@H](C)[C@@H](O[C@@H]2O[C@H](C)C[C@H](N(C)C)[C@H]2O)[C@](C)(O)C[C@@H](C)CN(C)[C@H](C)[C@@H](O)[C@]1(C)O [AZITHROMYCIN] | 256 (≈ 342 µM) | 0.25 (≈ 0.334 µM) | > 256 | > 256 | 0.25 (≈ 0.334 µM) | 256 (≈ 342 µM) | > 128 | 4 (≈ 5.34 µM) | – | – |
| CC[C@H]1OC(=O)[C@H](C)C(=O)[C@H](C)[C@@H](O[C@H]2O[C@@H](C)C[C@@H](N(C)C)[C@@H]2O)[C@](C)(OC)C[C@@H](C)C(=O)[C@H](C)[C@@H](OC(=O)NCCn2cc(-c3cccc(Br)c3)nn2)[C@]1(C)O | 128 (≈ 145 µM) | 8 (≈ 9.08 µM) | 256 (≈ 291 µM) | > 256 | 16 (≈ 18.2 µM) | 128 (≈ 145 µM) | > 128 | 128 (≈ 145 µM) | – | – |
| CC[C@H]1OC(=O)[C@H](C)C(=O)[C@H](C)[C@@H](O[C@H]2O[C@@H](C)C[C@@H](N(C)C)[C@@H]2O)[C@](C)(OC)C[C@@H](C)C(=O)[C@H](C)[C@@H](OC(=O)NCCn2cc(-c3ccc(F)cc3)nn2)[C@]1(C)O | 128 (≈ 156 µM) | 4 (≈ 4.88 µM) | 256 (≈ 312 µM) | > 256 | 16 (≈ 19.5 µM) | 64 (≈ 78.1 µM) | > 128 | 128 (≈ 156 µM) | – | – |
| CCc1ccc(-c2cn(CCNC(=O)O[C@@H]3[C@@H](C)C(=O)[C@H](C)C[C@@](C)(OC)[C@H](O[C@H]4O[C@@H](C)C[C@@H](N(C)C)[C@@H]4O)[C@@H](C)C(=O)[C@@H](C)C(=O)O[C@H](CC)[C@@]3(C)O)nn2)cc1 | 256 (≈ 308 µM) | 4 (≈ 4.82 µM) | > 256 | > 256 | 32 (≈ 38.6 µM) | 128 (≈ 154 µM) | > 128 | 128 (≈ 154 µM) | – | – |
| CC[C@H]1OC(=O)[C@H](C)C(=O)[C@H](C)[C@@H](O[C@H]2O[C@@H](C)C[C@@H](N(C)C)[C@@H]2O)[C@](C)(OC)C[C@@H](C)C(=O)[C@H](C)[C@@H](OC(=O)NCCn2cc(-c3cccc(Cl)c3)nn2)[C@]1(C)O | 128 (≈ 153 µM) | 4 (≈ 4.78 µM) | 128 (≈ 153 µM) | 256 (≈ 306 µM) | 8 (≈ 9.56 µM) | 64 (≈ 76.5 µM) | > 128 | 128 (≈ 153 µM) | – | – |
| CCCc1ccc(-c2cn(CCNC(=O)O[C@@H]3[C@@H](C)C(=O)[C@H](C)C[C@@](C)(OC)[C@H](O[C@H]4O[C@@H](C)C[C@@H](N(C)C)[C@@H]4O)[C@@H](C)C(=O)[C@@H](C)C(=O)O[C@H](CC)[C@@]3(C)O)nn2)cc1 | 128 (≈ 152 µM) | 8 (≈ 9.48 µM) | 256 (≈ 303 µM) | 256 (≈ 303 µM) | 32 (≈ 37.9 µM) | 64 (≈ 75.8 µM) | > 128 | 128 (≈ 152 µM) | – | – |
| CC[C@H]1OC(=O)[C@H](C)C(=O)[C@H](C)[C@@H](O[C@H]2O[C@@H](C)C[C@@H](N(C)C)[C@@H]2O)[C@](C)(OC)C[C@@H](C)C(=O)[C@H](C)[C@@H](OC(=O)NCCn2cc(-c3ccc(C)cc3)nn2)[C@]1(C)O | 256 (≈ 314 µM) | 8 (≈ 9.8 µM) | > 256 | > 256 | 32 (≈ 39.2 µM) | 256 (≈ 314 µM) | > 128 | 128 (≈ 157 µM) | – | – |
| CC[C@H]1OC(=O)[C@H](C)C(=O)[C@H](C)[C@@H](O[C@H]2O[C@@H](C)C[C@@H](N(C)C)[C@@H]2O)[C@](C)(OC)C[C@@H](C)C(=O)[C@H](C)[C@@H](OC(=O)NCCn2cc(-c3cccc([N+](=O)[O-])c3)nn2)[C@]1(C)O | 128 (≈ 151 µM) | 4 (≈ 4.72 µM) | 256 (≈ 302 µM) | > 256 | 8 (≈ 9.45 µM) | 64 (≈ 75.6 µM) | > 128 | 128 (≈ 151 µM) | – | – |
| CC[C@H]1OC(=O)[C@H](C)C(=O)[C@H](C)[C@@H](O[C@H]2O[C@@H](C)C[C@@H](N(C)C)[C@@H]2O)[C@](C)(OC)C[C@@H](C)C(=O)[C@H](C)[C@@H](OC(=O)NCCn2cc(-c3ccc(C(C)(C)C)cc3)nn2)[C@]1(C)O | 128 (≈ 149 µM) | 8 (≈ 9.32 µM) | 128 (≈ 149 µM) | 256 (≈ 298 µM) | 32 (≈ 37.3 µM) | 64 (≈ 74.6 µM) | > 128 | 128 (≈ 149 µM) | – | – |
| CC[C@H]1OC(=O)[C@H](C)C(=O)[C@H](C)[C@@H](O[C@H]2O[C@@H](C)C[C@@H](N(C)C)[C@@H]2O)[C@](C)(OC)C[C@@H](C)C(=O)[C@H](C)[C@@H](OC(=O)NCCn2cc(-c3ccccc3)nn2)[C@]1(C)O | 256 (≈ 319 µM) | 8 (≈ 9.98 µM) | 256 (≈ 319 µM) | > 256 | 32 (≈ 39.9 µM) | 256 (≈ 319 µM) | > 128 | 128 (≈ 160 µM) | – | – |
| CC[C@H]1OC(=O)[C@H](C)C(=O)[C@H](C)[C@@H](O[C@H]2O[C@@H](C)C[C@@H](N(C)C)[C@@H]2O)[C@](C)(OC)C[C@@H](C)C(=O)[C@H](C)[C@@H](OC(=O)NCCn2cc(-c3cccc(F)c3)nn2)[C@]1(C)O | 128 (≈ 156 µM) | 4 (≈ 4.88 µM) | 256 (≈ 312 µM) | 256 (≈ 312 µM) | 8 (≈ 9.76 µM) | 128 (≈ 156 µM) | > 128 | 128 (≈ 156 µM) | – | – |
| CC[C@H]1OC(=O)[C@H](C)C(=O)[C@H](C)[C@@H](O[C@H]2O[C@@H](C)C[C@@H](N(C)C)[C@@H]2O)[C@](C)(OC)C[C@@H](C)C(=O)[C@H](C)[C@@H](OC(=O)NCCn2cc(-c3ccccc3OC)nn2)[C@]1(C)O | > 256 | 4 (≈ 4.81 µM) | > 256 | > 256 | 16 (≈ 19.2 µM) | 256 (≈ 308 µM) | > 128 | 128 (≈ 154 µM) | – | – |
